# Assays:
# [1] = test system: DoHH2 cells; experiment: Alamar blue assay in DoHH2 cells; assay type: cell-based; conditions: DLBCL cell line from a transformed follicular lymphoma patient
# Text: DOHH2 is a DLBCL (diffuse large B-cell lymphoma) cell line, from a transformed follicular lymphoma patient.
# Assay was an alamar blue assay.
# [2] = test system: individuals with follicular lymphoma; experiment: Absolute lymphocyte count / B cell mobilization vs cycle day in individuals with follicular lymphoma; assay type: in vivo, human
# Protocol: All Patients (except Pt 32009) were treated on schedule of 4 weeks on treatment followed by one week off. Thus, day 1 of each cycle follows one week off drug for these patients.
# All Patients were treated on schedule of 4 weeks on treatment followed by one week off. Thus, day 1 of each cycle follows one week off drug for these patients.
# All Patients except 38010 were treated on schedule of 4 weeks on treatment followed by one week off. Thus, day 1 of each cycle follows one week off drug for these patients.
# [3] = test system: individuals with DLBCL; experiment: Absolute lymphocyte count vs cycle day in individuals with DLBCL; assay type: in vivo, human; conditions: PD individuals, FIG. 11
# Protocol: Patient 38011 was treated on schedule of 4 weeks on treatment followed by one week off. Thus, day 1 of each cycle follows one week off drug for this patient. Patients 38008 and 324001 were treated with continuous daily doses.
# All Patients were treated on schedule of 4 weeks on treatment followed by one week off. Thus, day 1 of each cycle follows one week off drug for these patients. […] Patient 32002 received only one cycle of treatment.
# [4] = test system: individuals with mantle cell lymphoma; experiment: Absolute lymphocyte count vs cycle day in individuals with mantle cell lymphoma; assay type: in vivo, human
# Protocol: Patients 32006, 38003, and 38004 were treated on schedule of 4 weeks on treatment followed by one week off. Thus, day 1 of each cycle follows one week off drug for these patients. The other patients were treated with continuous daily dosing.
structure (smiles),measurement,setting,value
"C=CC(=O)N1CCC[C@@H](n2nc(-c3ccc(Oc4ccccc4)cc3)c3c(N)ncnc32)C1 [Btk inhibitor, (R)-1-(3-(4-amino-3-(4-phenoxyphenyl)-1H-pyrazolo[3,4-d]pyrimidin-1-yl)piperidin-1-yl)prop-2-en-1-one]",Sensitivity of DOHH2 cell line,[1],moderately sensitive
same,B cell fraction change by cycle,"[2]; Patient 32007, Cohort 4, follicular lymphoma grade 3, regressed from SD to CR, FIG. 14",characteristic cyclic increases
same,Lymphocyte mobilization (ALC),"[2]; follicular lymphoma, PD individuals, FIG. 9",lack of mobilization
same,Absolute lymphocyte count (ALC) change by cycle,"[2]; follicular lymphoma, complete or partial response (CR/PR), 4 weeks on, 1 week off, FIG. 7",increases of ALC during most cycles of most patients
same,Lymphocyte mobilization (ALC),[3],lack of mobilization for 3 of the 4 patients
same,Lymphocyte mobilization (ALC),"[4]; patient with initial PD (32014), FIG. 12",failed to show mobilization
same,Lymphocyte mobilization (ALC),"[4]; responding patients, FIG. 13",all responding patients showed some degree of mobilization

# — US11672803B2, “Use of inhibitors of Brutons tyrosine kinase (Btk)” (priority 2010, dated 2023)
